According to US10364256B2 (GlaxoSmithKline Intellectual Property Development Limited, priority 2015, dated 2019):
Where two headings read alike, the source gives them in different places.

What was measured:
[1] = system: NQO1 specific enzyme activity in BEAS-2B cells (marker for NRF2 activation); test: BEAS-2B NQO1 MTT Assay; format: cell-based; settings: compound incubated 48 hours, read-out: EC50 (NQO1 specific enzyme activity induction)
In short: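 BEAS-2B cells treated with compound for 48 h at 37 °C, then lysed; NQO1 activity in lysates measured kinetically by MTT reduction at A570 over 30 min. pEC50 from 3-parameter fit of ΔOD/min versus log concentration; lysate also taken for Cell Titer Glo.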

[2] = biological target: T1, full length Keap1 protein / full length NRF2 protein (Homo sapiens, UniProt Q14145); test: NRF2-Keap1 TR-FRET Low Protein Assay; format: binding; settings: 1.25 nM Keap1 FlagHis and 2.5 nM biotin-NRF2 added
T1 construct: full length NRF2 protein and full length Keap1 protein (Keap1 exists a dimer) are used; His
T1 sequence (Q14145 whole entry): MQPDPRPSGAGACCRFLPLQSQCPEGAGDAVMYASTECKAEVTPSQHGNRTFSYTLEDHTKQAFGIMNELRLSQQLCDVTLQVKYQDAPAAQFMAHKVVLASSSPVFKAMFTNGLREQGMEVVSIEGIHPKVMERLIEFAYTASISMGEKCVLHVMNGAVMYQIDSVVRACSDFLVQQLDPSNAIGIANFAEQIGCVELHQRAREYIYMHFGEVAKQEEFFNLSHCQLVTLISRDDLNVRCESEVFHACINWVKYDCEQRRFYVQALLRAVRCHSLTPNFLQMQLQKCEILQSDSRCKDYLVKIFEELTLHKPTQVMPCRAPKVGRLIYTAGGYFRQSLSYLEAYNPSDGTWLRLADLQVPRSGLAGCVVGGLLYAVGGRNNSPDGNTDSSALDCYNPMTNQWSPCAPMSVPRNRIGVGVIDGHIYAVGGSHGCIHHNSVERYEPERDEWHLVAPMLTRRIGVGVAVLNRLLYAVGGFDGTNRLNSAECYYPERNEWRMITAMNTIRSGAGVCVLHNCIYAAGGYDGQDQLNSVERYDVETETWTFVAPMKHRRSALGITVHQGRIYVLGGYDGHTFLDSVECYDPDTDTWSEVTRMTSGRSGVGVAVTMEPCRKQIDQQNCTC
In short: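 Flag-tagged full-length Keap1 was preincubated with compound (3-fold series) for 2.25 h at 37 °C in Tris pH 8.0/MgCl2/NaCl/BSA/DTT/CHAPS. Biotin-Avi-NRF2 (added at 2.5 nM) was then bound for 1.25 h at 4 °C. Eu-streptavidin/anti-Flag-APC TR-FRET (665/615 nm) was read after 1 h at RT, and pIC50 came from a four-parameter fit.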

[3] = biological target: T2, Keap1 Kelch domain (321-609) / TAMRA-labeled 16mer NRF2 peptide (ETGE motif) (Homo sapiens, UniProt Q14145); test: NRF2-Keap1 FP Assay (Keap1 Kelch fluorescence polarization); format: binding; settings: 20 nM Keap1 (321-609), 8 nM Tamra labeled peptide
T2 construct: the Kelch domain (321-609) of Keap1 is used
T2 sequence (Q14145 321-609): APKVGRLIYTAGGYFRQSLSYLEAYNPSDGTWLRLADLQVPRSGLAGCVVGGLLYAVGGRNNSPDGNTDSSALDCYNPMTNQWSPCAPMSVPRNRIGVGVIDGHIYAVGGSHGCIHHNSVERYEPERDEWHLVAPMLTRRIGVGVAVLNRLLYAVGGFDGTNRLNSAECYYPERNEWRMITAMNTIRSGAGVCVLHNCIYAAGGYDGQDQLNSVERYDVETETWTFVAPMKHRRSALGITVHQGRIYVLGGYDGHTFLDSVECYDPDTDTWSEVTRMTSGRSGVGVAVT
In short: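 Compound dilutions (3-fold) were incubated 1 hr at room temperature with 20 nM Keap1 Kelch (321-609) and 8 nM TAMRA-labeled ETGE 16mer peptide. Buffer was 50 mM Tris pH 8.0, 100 mM NaCl, 5 mM MgCl2, 1 mM DTT, 2 mM CHAPS, 0.005% BSA. Fluorescence polarization (mP) was normalized to controls and fitted with a four-parameter equation to give pIC50.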

Structure (SMILES) | EC50 ([1]; Homo sapiens) [nM] | IC50 [2] [nM] | IC50 [3] [nM] | EC50 [1] [nM]
C[C@H](Oc1cccc(-c2cccc(-n3ncc(C(=O)O)c3[C@@H]3C[C@H]3c3cn(C4CNC4)nn3)c2)c1)C1CCCCC1 (racemic) [Example 85, 5-(trans-2-(1-(Azetidin-3-yl)-1H-1,2,3-triazol-4-yl)cyclopropyl)-1-(3′-((S)-1-cyclohexylethoxy)-[1,1′-biphenyl]-3-yl)-1H-pyrazole-4-carboxylic Acid] | 100 to 1000 | 10 to 100 | 10 to 100 | –
C[C@H]1Cc2ccc(Br)cc2S(=O)(=O)N(Cc2cccc(-c3cccc(-n4ncc(C(=O)O)c4[C@@H]4C[C@H]4c4cn(C)nn4)c3)c2F)C1 [Example 131, 1-(3′-(((S)-8-Bromo-4-methyl-1,1-dioxido-4,5-dihydrobenzo[f][1,2]thiazepin-2(3H)-yl)methyl)-2′-fluoro-[1,1′-biphenyl]-3-yl)-5-((1R,2R)-2-(1-methyl-1H-1,2,3-triazol-4-yl)cyclopropyl)-1H-pyrazole-4-carboxylic acid] | 100 to 1000 | < 10 | 10 to 100 | –
C[C@H](Oc1cccc(-c2cccc(-n3ncc(C(=O)O)c3[C@H]3C[C@@H]3c3cn(C4CCOCC4)nn3)c2)c1)C1CCCCC1 [Example 96] | 100 to 1000 | 100 to 1000 | 1000 to 10000 | –
C[C@H](Oc1cccc(-c2cccc(-n3ncc(C(=O)OCOC(=O)OC(C)(C)C)c3[C@@H]3C[C@H]3c3cn(C)nn3)c2)c1)C1CCCCC1 [Example 112, ((tert-Butoxycarbonyl)oxy)methyl 1-(3′-((S)-1-cyclohexylethoxy)-[1,1′-biphenyl]-3-yl)-5-((1R,2R)-2-(1-methyl-1H-1,2,3-triazol-4-yl)cyclopropyl)-1H-pyrazole-4-carboxylate] | 1 to 10 | 100 to 1000 | > 10000 | –
C[C@H]1Cc2ccc(Br)cc2S(=O)(=O)N(Cc2cccc(-c3cccc(-n4ncc(C(=O)O)c4[C@@H]4C[C@H]4c4cn(C)nn4)c3)c2)C1 (single isomer, unassigned; isomer 1) [Example 134] | 100 to 1000 | < 10 | 10 to 100 | –
Cn1cc([C@@H]2C[C@H]2c2c(C(=O)O)cnn2-c2cccc(-c3cccc(/C=C/C4CCCCC4)c3)c2)nn1 (racemic) [Example 113, rac-1-(3′-((E)-2-Cyclohexylvinyl)-[1,1′-biphenyl]-3-yl)-5-(trans-2-(1-methyl-1H-1,2,3-triazol-4-yl)cyclopropyl)-1H-pyrazole-4-carboxylic Acid] | 10 to 100 | 100 to 1000 | 100 to 1000 | –
CC[C@H]1c2ccccc2OCCN1Cc1cccc(-c2cccc(-n3ncc(C(=O)O)c3[C@@H]3C[C@H]3c3cn(C)nn3)c2)c1 (single isomer, unassigned; isomer 1) [Example 122] | – | < 10 | 10 to 100 | 10 to 100
C[C@H](Oc1cccc(-c2cccc(-n3ncc(C(=O)O)c3[C@@H]3C[C@H]3c3cn(C4CCNCC4)nn3)c2)c1)C1CCCCC1 (racemic) [Example 86, 1-(3′-((S)-1-cyclohexylethoxy)-[1,1′-biphenyl]-3-yl)-5-(trans-2-(1-(piperidin-4-yl)-1H-1,2,3-triazol-4-yl)cyclopropyl)-1H-pyrazole-4-carboxylic Acid] | 100 to 1000 | 10 to 100 | 10 to 100 | –
Cn1cc([C@@H]2C[C@H]2c2c(C(=O)O)cnn2-c2cccc(-c3cccc(CN4CCOc5ccccc5C4)c3)c2)nn1 (racemic) [Example 256, 1-(3′-((2,3-Dihydrobenzo[f][1,4]oxazepin-4(5H)-yl)methyl)-[1,1′-biphenyl]-3-yl)-5-(trans-2-(1-methyl-1H-1,2,3-triazol-4-yl)cyclopropyl)-1H-pyrazole-4-carboxylic Acid] | 1000 to 10000 | 10 to 100 | 10 to 100 | –
CC[C@@H]1CN(C(=O)c2cccc(-c3cccc(-n4ncc(C(=O)O)c4[C@@H]4C[C@H]4c4cn(C)nn4)c3)c2)Cc2ccccc2O1 [Example 257] | 1000 to 10000 | < 10 | 10 to 100 | –
CN1CCN(Cc2cccc(-c3cccc(-n4ncc(C(=O)O)c4[C@@H]4C[C@H]4c4cn(C)nn4)c3)c2)S(=O)(=O)c2ccccc21 (racemic) [Example 140, 1-(3′-((5-methyl-1,1-dioxido-4,5-dihydrobenzo[f][1,2,5]thiadiazepin-2(3H)-yl)methyl)-[1,1′-biphenyl]-3-yl)-5-((1,2- trans)-2-(1-methyl-1H-1,2,3-triazol-4-yl)cyclopropyl)-1H-pyrazole-4-carboxylic acid] | 1000 to 10000 | 10 to 100 | 10 to 100 | –
C[C@H](Oc1cccc(-c2cccc(-n3ncc(C(=O)O)c3[C@@H]3C[C@H]3c3c[nH]nn3)c2)c1)C1CCCCC1 [Example 99, 5-((1R,2R)-2-(1H-1,2,3-Triazol-4-yl)cyclopropyl)-1-(3′-((S)-1-cyclohexylethoxy)-[1,1′-biphenyl]-3-yl)-1H-pyrazole-4-carboxylic Acid] | 1 to 10 | < 10 | 10 to 100 | –
CC(Oc1cccc(-c2cccc(-n3ncc(C(=O)O)c3[C@H]3C[C@@H]3c3cn(C)nn3)c2)c1)[C@H]1CC[C@H](C(F)(F)F)CC1 (mixture of isomers) [Example 180, 5-((1,2-trans)-2-(1-Methyl-1H-1,2,3-triazol-4-yl)cyclopropyl)-1-(3′-((R)-1-((1R,4R)-4-(trifluoromethyl)cyclohexyl)ethoxy)-[1,1′-biphenyl]-3-yl)-1H-pyrazole-4-carboxylic acid] | 1 to 10 | 10 to 100 | 100 to 1000 | –
C[C@H](Oc1cccc(-c2cccc(-n3ncc(C(=O)O)c3[C@@H]3C[C@H]3c3cn(CCO)nn3)c2)c1)C1CCCCC1 (racemic) [Example 90, 1-(3′-((S)-1-Cyclohexylethoxy)-[1,1′-biphenyl]-3-yl)-5-(trans-2-(1-(2-hydroxyethyl)-1H-1,2,3-triazol-4-yl)cyclopropyl)-1H-pyrazole-4-carboxylic acid] | 10 to 100 | < 10 | 10 to 100 | –
CC[C@@H]1COc2ccccc2CN1Cc1cccc(-c2cccc(-n3ncc(C(=O)O)c3[C@@H]3C[C@H]3c3cn(C)nn3)c2)c1 [Example 120, 1-(3′-(((R)-3-Ethyl-2,3-dihydrobenzo[f][1,4]oxazepin-4(5H)-yl)methyl)-[1,1′-biphenyl]-3-yl)-5-((1R,2R)-2-(1-methyl-1H-1,2,3-triazol-4-yl)cyclopropyl)-1H-pyrazole-4-carboxylic Acid] | 10 to 100 | < 10 | 10 to 100 | –
C[C@H](Oc1cccc(-c2cccc(-n3ncc(C(=O)O)c3[C@@H]3C[C@H]3c3cn(C4CCCCC4)nn3)c2)c1)C1CCCCC1 (racemic) [Example 84, 5-(trans-2-(1-Cyclohexyl-1H-1,2,3-triazol-4-yl)cyclopropyl)-1-(3′-((S)-1-cyclohexylethoxy)-[1,1′-biphenyl]-3-yl)-1H-pyrazole-4-carboxylic acid] | 10 to 100 | 10 to 100 | 100 to 1000 | –
C[C@H](Oc1cccc(-c2cccc(-n3ncc(C(=O)O)c3[C@@H]3C[C@H]3c3cn(C4CCOCC4)nn3)c2)c1)C1CCCCC1 [Example 95, 1-(3′-((S)-1-Cyclohexylethoxy)-[1,1′-biphenyl]-3-yl)-5-((1R,2R)-2-(1-(tetrahydro-2H-pyran-4-yl)-1H-1,2,3-triazol-4-yl)cyclopropyl)-1H-pyrazole-4-carboxylic Acid] | 1 to 10 | < 10 | 10 to 100 | –
Cc1c(O[C@@H](C)C2CCCCC2)cccc1-c1cccc(-n2ncc(C(=O)O)c2[C@H]2C[C@@H]2c2cn(C)nn2)c1 (racemic) [Example 71, 1-(3′-((S)-1-Cyclohexylethoxy)-2′-methyl-[1,1′-biphenyl]-3-yl)-5-(trans-2-(1-methyl-1H-1,2,3-triazol-4-yl)cyclopropyl)-1H-pyrazole-4-carboxylic Acid] | 1000 to 10000 | 1000 to 10000 | 1000 to 10000 | –
CCC1COc2ccccc2CN1Cc1cccc(-c2cccc(-n3ncc(C(=O)O)c3[C@H]3C[C@@H]3c3cn(C)nn3)c2)c1 (mixture of isomers) [Example 118, 1-(3′-((3-Ethyl-2,3-dihydrobenzo[f][1,4]oxazepin-4(5H)-yl)methyl)-[1,1′-biphenyl]-3-yl)-5-((1,2-trans)-2-(1-methyl-1H-1,2,3-triazol-4-yl)cyclopropyl)-1H-pyrazole-4-carboxylic Acid] | 100 to 1000 | < 10 | 10 to 100 | –
C[C@H](Oc1cccc(-c2cccc(-n3ncc(C(=O)O)c3[C@@H]3C[C@H]3c3cn(C4CC4)nn3)c2)c1)C1CCCCC1 [Example 98, 1-(3′-((S)-1-Cyclohexylethoxy)-[1,1′-biphenyl]-3-yl)-5-((1R,2R)-2-(1-cyclopropyl-1H-1,2,3-triazol-4-yl)cyclopropyl)-1H-pyrazole-4-carboxylic acid] | 1 to 10 | < 10 | 10 to 100 | –
